Measurements as given in US7763660B2, “Inhibitors of Candida albicans” (The University of Vermont and State Agricultural College, priority 2003, dated 2010).

Experiments:
C. albicans cells = assay: small molecule screen for inhibitors of the Spider media-induced budded-to-hyphal transition; assay type: cell-based, Candida albicans
Procedure: For the screen, C. albicans cells were grown in YNB media that inhibits hyphal growth and then transferred to 384-well optical plates containing Spider media to induce the budded-to-hyphal transition and hyphal elongation. […] In FIG. 3, the indicated small molecules were added at the indicated concentrations at time 0 and growth was allowed to continue for 4 h at 37° C. before the cells were fixed and observed microscopically. YNB media is well known in the art and contains yeast nitrogen base (DIFCO Labs.), glucose (US Biological) and d-H2O. Spyder media is well known in the art and contains nutrient broth (DIFCO Labs.), mannitol (Sigma-Aldrich), K2HPO4 (Sigma-Aldrich) and d-H2O.
Next, small molecules were assayed for their ability to inhibit the Spider media-induced hyphal growth.
The basic microscopic screen was described in detail above. To identify inhibitors, C. albicans cells are initially grown in YNB media that inhibits hyphal growth and then transferred to 384-well optical assay plates containing Spider media to induce the transition to hyphae. Individual molecules from the Chembridge small molecule library (Kao, R. Y. T., et al., 2002, Proc. Natl. Acad. Sci. USA 99: 10066-10071), or other library, are transferred from a 384-well plate containing stock solutions to individual wells of the assay plates. For convenience, positive and negative controls may be located at each corner of the plate. These plates are incubated at 37° C. for 4 h to allow for hyphal elongation before the cells are fixed and screened. Screening occurs on an inverted Nikon microscope with a computer driven XY stage with DIC/Hoffman optics, digital SPOT® camera and automatic shutter. Pictures are automatically taken of each well with the plate number and well position embedded in the picture through a script written for OpenLab® image analysis software from Improvision (INVIVO, from QED Imaging, Inc.). Inhibitory molecules are identified by rapidly screening a picture of each well for the presence of budded cells and absence of hyphal cells. Each inhibitor is retested at both 4 h and 16 h to eliminate those compounds that are cytotoxic, delay hyphal formation, or delay elongation through a growth defect. Molecules that give consistent inhibition of the budded-to-hyphal transition with continued budded growth with no hyphae out to 16 are further characterized as described below. A dose-response for each molecule is established through serial dilutions in order to determine the threshold concentration of each molecule. Typical threshold concentrations range from about 1 to about 100 micromolar (μM). In addition, the reversibility of each molecule is tested by washing out the molecule and adding fresh Spider media; cells that resume hyphal growth indicate that the molecule is reversible in action and that the molecule's initial effects were not due to cytotoxicity.

[1] = Scott, V. R., et al., 1988; cited from earlier work

C/C1=C\[C@H](C)C[C@H](C)OC(=O)C[C@H](c2ccc(O)cc2)NC(=O)[C@@H](Cc2c(Br)[nH]c3ccccc23)N(C)C(=O)[C@H](C)NC(=O)[C@@H](C)C1 [jasplakinolide]
cell phenotype in the screen (C. albicans cells; 4 h at 37° C. (FIG. 3)): apparent cell-cycle arrest as small budded cells
cytotoxicity in the screen (C. albicans cells; 4 h at 37° C. (FIG. 3)): dose-dependent cytotoxic molecule
anti-fungal activity [1]: previously shown to have anti-fungal activity

C/C1=C/C(=O)O[C@@H]2C[C@@H](CC[C@H](C)/C=C\C=C\CC1)O[C@@](O)([C@@H]1CSC(=O)N1)C2 [Lat A, latrunculin-A]
dose-dependence of the inhibition (C. albicans cells): dose-dependent
reversibility of the inhibition (C. albicans cells): reversible
inhibition of the budded-to-hyphal transition and hyphal growth (C. albicans cells; 0.1 μM, 4 h at 37° C.): effect was lost
inhibition of the budded-to-hyphal transition and hyphal growth (C. albicans cells; 1.6 μM added at time 0, 4 h at 37° C.): inhibited the budded-to-hyphal transition and hyphal growth
